In brackets after ≈: the same amount, converted by molar mass. Like-named read-outs stand apart in the source and are kept apart here.
How the values were obtained:
[1] = test system: Enterococcus faecium ATCC 51550; settings: E. facium strain ATCC 51550
[2] = test system: Enterococcus faecium ATCC 700221; settings: E. facium strain ATCC 700221
[3] = test system: Enterococcus faecium strain 8803; settings: E. facium strain 8803
[4] = test system: Staphylococcus aureus NCTC 8325; set-up: MIC: unit not given beside the values; settings: S. aureus strain 8325
S. aureus strain 700698 [5] = test system: S. aureus strain 700698; set-up: MIC: unit not given beside the values; settings: S. aureus strain ATCC 700698
S. aureus strain 700698R [6] = settings: S. aureus strain ATCC 700698R; additional 24 hours at 35° C.
[7] = test system: Staphylococcus aureus NCTC 8325; settings: S. aureus strain 8325; characteristics of the strain; cited from earlier work
S. aureus strain 700698 [8] = settings: S. aureus strain ATCC 700698; characteristics of the strain; cited from earlier work
S. aureus strain 700698R [9] = settings: S. aureus strain ATCC 700698R; characteristics of the strain; cited from earlier work
E. coli K12 = format: cell-based, Escherichia coli
[10] = test system: Escherichia coli K12 MG1655; format: cell-based; settings: cultures with 10^4-10^1 cells/ml; 37° C., 16 hours
From the text: (§1) The bacterial growth assay is designed to identify modified PNA molecules that inhibit or completely abolish bacterial growth. Growth inhibition results from antisense binding of PNA to mRNA of the targeted gene. The compound tested is present during the entire assay.
(§2) The experimental bacterial strain used is Escherichia coli K12 MG1655 (E. coli Genentic Stock Center, Yale University, New Haven). The medium for growth is 10% sterile LB (Lurea Bertani) medium. E. coli test cells are pre-cultured in LB medium at 37° C. over night (over night culture). The screen is performed in 96-well microtiter plates at 37° C. with constant shaking. PNAs are dissolved in H2O as a 40×concentrated stock solution.
(§3) A fresh culture (test culture) is inoculated with an overnight culture and grown to mid-log-phase (OD600=0.1 corresponding to 10^7 cells/ml) at 37° C. The test culture is diluted stepwise in the range 10^5 to 10^1 with 10% LB medium. 195 μl of diluted culture and 5 μl of a 40×concentrated PNA stock solution are added to each test well. 96-well microtiter plates are incubated in a microplate scanning spectrophotometer at 37° C. under constant shaking. OD600 measurements are performed automatically every 3.19 minutes and recorded simultaneously.
The assay was performed as follows. […] PNA design no. 2

[11] = test system: Escherichia coli K12 MG1655; format: cell-based; settings: cultures with 10^4-10^1 cells/ml; 37° C., 16 hours; remark: listed apart in the source
From the text: as §1, §2, §3
The assay was performed as follows.

Compound: CC[C@H](C)[C@H](NC(=O)[C@H](CCCCN)NC(=O)[C@H](CCCCN)NC(=O)[C@H](CC(C)C)NC(=O)[C@@H](NC(=O)[C@@H](NC(=O)[C@H](C)NC(=O)[C@@H](NC(=O)[C@H](CCCCN)NC(=O)[C@H](CCCCN)NC(=O)[C@@H](NC(=O)[C@H](CC(C)C)NC(=O)[C@@H](NC(=O)[C@@H](NC(=O)CNC(=O)[C@H](CC(C)C)NC(=O)[C@@H]1CCCN1C(=O)[C@H](C)NC(=O)[C@H](CC(C)C)NC(=O)[C@@H](NC(=O)[C@@H](N)CO)[C@@H](C)CC)[C@@H](C)O)[C@@H](C)O)C(C)C)C(C)C)[C@@H](C)O)[C@@H](C)O)C(=O)N[C@@H](Cc1ccccc1)C(=O)N[C@@H](CO)C(=O)N[C@@H](CCCCN)C(=O)N[C@@H](Cc1c[nH]c2ccccc12)C(=O)N[C@@H](CCCCN)C(=O)N[C@@H](CSC1CC(=O)N(CC2CCC(C(=O)NCCOCCOCC(=O)NCCN(CC(=O)NCCN(CC(=O)NCCN(CC(=O)NCCN(CC(=O)NCCN(CC(=O)NCCN(CC(=O)NCCN(CC(=O)NCCN(CC(=O)NCCN(CC(=O)NCCN(CC(=O)NCCN(CC(=O)NCCN(CC(N)=O)C(=O)Cn3cnc4c(N)ncnc43)C(=O)Cn3cc(C)c(=O)[nH]c3=O)C(=O)Cn3cc(C)c(=O)[nH]c3=O)C(=O)Cn3cc(C)c(=O)[nH]c3=O)C(=O)Cn3cnc4c(N)ncnc43)C(=O)Cn3ccc(N)nc3=O)C(=O)Cn3cnc4c(N)ncnc43)C(=O)Cn3cnc4c(N)ncnc43)C(=O)Cn3cc(C)c(=O)[nH]c3=O)C(=O)Cn3ccc(N)nc3=O)C(=O)Cn3cc(C)c(=O)[nH]c3=O)C(=O)Cn3cc(C)c(=O)[nH]c3=O)CC2)C1=O)C(=O)O (stereo partly drawn) [Example 22]
- MIC [1]: <0.4 µM
- MBC ([1]; additional 24 hours at 35° C.): <0.4 µM
- MIC [2]: <0.4 µM
- MBC ([2]; additional 24 hours at 35° C.): <0.4 µM
- MIC [3]: <0.4 µM
- MBC ([3]; additional 24 hours at 35° C.): <0.4 µM

Compound: Cc1cn(CC(=O)N(CCNC(=O)CN(CCNC(=O)CN(CCNC(=O)CN(CCNC(=O)CN(CCNC(=O)CN(CCNC(=O)CN(CCNC(=O)COCCOCCNC(=O)C2CCC(CN3C(=O)CC(SC[C@H](NC(=O)[C@H](CCCCN)NC(=O)[C@H](CCCCN)NC(=O)[C@@H](NC(=O)[C@@H](NC(=O)[C@H](Cc4ccccc4)NC(=O)[C@H](CCCCN)NC(=O)[C@@H](NC(=O)[C@H](CCCCN)NC(=O)[C@H](Cc4ccccc4)NC(=O)[C@H](CCCCN)NC(=O)[C@@H](N)CCCCN)C(C)C)C(C)C)C(C)C)C(=O)O)C3=O)CC2)C(=O)Cn2cnc3c(N)ncnc32)C(=O)Cn2ccc(N)nc2=O)C(=O)Cn2cc(C)c(=O)[nH]c2=O)C(=O)Cn2cc(C)c(=O)[nH]c2=O)C(=O)Cn2cc(C)c(=O)[nH]c2=O)C(=O)Cn2cnc3c(=O)[nH]c(N)nc32)CC(=O)NCCN(CC(=O)NCCN(CC(=O)NCCN(CC(=O)NCCN(CC(=O)NCCN(CC(N)=O)C(=O)Cn2ccc(N)nc2=O)C(=O)Cn2ccc(N)nc2=O)C(=O)Cn2ccc(N)nc2=O)C(=O)Cn2cnc3c(=O)[nH]c(N)nc32)C(=O)Cn2ccc(N)nc2=O)c(=O)[nH]c1=O (stereo partly drawn) [Example 24, H2N-KKFKVKFVVKKC-smcc-Ado-ACTTTGTCGCCC-NH2]
- MIC [4]: 800/1600
- MBC ([4]; additional 24 hours at 35° C.): 1.6 µM (≈ 8.07 µg/mL)
- MIC (S. aureus strain 700698 [5]): 800/1600
- MBC (S. aureus strain 700698 [5]; additional 24 hours at 35° C.): 1.6 µM (≈ 8.07 µg/mL)
- MBC (S. aureus strain 700698R [6]): ≧1600 nM

Compound: CN[C@H](CC(C)C)C(=O)N[C@H]1C(=O)N[C@@H](CC(N)=O)C(=O)N[C@H]2C(=O)N[C@H]3C(=O)N[C@H](C(=O)N[C@H](C(=O)O)c4cc(O)cc(O)c4-c4cc3ccc4O)[C@H](O)c3ccc(c(Cl)c3)Oc3cc2cc(c3O[C@@H]2O[C@H](CO)[C@@H](O)[C@H](O)[C@H]2O[C@H]2C[C@](C)(N)[C@H](O)[C@H](C)O2)Oc2ccc(cc2Cl)[C@H]1O [Vancomycin]
- Vancomycin MIC [7]: <0.5 µg/mL
- Vancomycin MIC (S. aureus strain 700698 [8]): 2 µg/mL
- Vancomycin MIC (S. aureus strain 700698R [9]): 11 µg/mL

Compound: H-KFFKFFKFF-ado-JTJTJJT-ado-ado-ado-TCCCTCTC-Lys-NH2 [Example 5]
- Bacterial growth inhibition (E. coli K12): − (key: +: Total inhibition of bacterial growth.; (+): Significantly extended lagphase, (more than five times); −: Lagphase extended less than five times;)

Compound: H-KFFKFFKFFK-ado-CACTGGAAATTT-Lys-NH2 [PNA 26]
- PNA concentration giving total inhibition of growth [10]: at least 2.5 μM

Compound: H-KFFKFFKFFK-ado-TTTCATCCGCTG-Lys-NH2 [PNA 14]
- PNA concentration giving total inhibition of growth [11]: at least 1.4 μM

Compound: H-LLKKLAKALKG-ahex-ado-CCA TCT AAT CCT-NH2 [PNA 228]
- Bacterial growth inhibition (E. coli K12): − (key: +: Total inhibition of bacterial growth.; (+): Significantly extended lagphase, (more than five times); −: Lagphase extended less than five times;)

From patent US20030199431A1, “Modified peptide nucleic acid (PNA) molecules” (priority 1999, published 2003)
